In patent publication US20240252527A9, “NUCLEOSIDE DRUGS FOR THE TREATMENT OR PREVENTION OF CORONAVIRUS INFECTION AND THEIR USES” (Miracure Biotechnology Limited, priority 2022, published 2024):
Where two headings read alike, the source gives them in different places.

Experiments:
OC43 = OC43 Huh7 CPE assay (cytopathic experiment); type: cell-based, coronavirus OC43 (HCoV-OC43); conditions: for EC50: read-out: OC43 Huh7 CPE assay (μM) EC50; for EC90: read-out: OC43 Huh7 CPE assay (μM) EC90
Method: (§1) Cells were seeded into microplates at a certain density and cultured overnight in a incubator at 5% CO2, 37° C. The next day, double-diluted compound and virus were added. It was set up a cell control group (cells without treatment with a compound or virus infection), a virus control group (cells infected with virus, no compound treatment) and a culture medium control group (medium only). Cells were cultured in the incubator for 3 days (229E) or 7 days (OC43). Cytotoxicity experiments were performed under the same conditions as antiviral experiments, but without virus infection. Cell viability was tested using a cell viability assay kit Cell Titer Glo (Promega).
(§2) The antiviral activity and cytotoxicity of the compounds were expressed by the inhibition rate (%) and cell viability (%) of the compounds against virus-induced cytopathic effects at different concentrations, respectively. Nonlinear fitting analysis on the inhibition rate and cell viability of the compounds were carried out with the GraphPad Prism, and the half effective concentration (EC50), the […] effective concentration (EC90), the half cytotoxic concentration (CC50) and the 90% cytotoxic concentration of the compound […] values were calculated.

229E = 229E MRC5 CPE assay (cytopathic experiment); type: cell-based, coronavirus 229E (HCoV-229E)
Method: as §1, §2

[1] = Betacoronavirus 1, Huh-7, 168 h, Huh7 cells, OC43 virus, 7 days, Cell Titer Glo
[2] = Human coronavirus 229E, MRC5, 72 h; read-out: 229E MRC5 CPE assay (μM) EC50
[3] = Human coronavirus 229E, MRC5, 72 h; read-out: 229E MRC5 CPE assay (μM) EC90
[4] = Betacoronavirus 1, OC43, Huh-7, 168 h
[5] = Human coronavirus 229E, MRC5, 72 h, read-out: 229E MRC5 CPE assay (μM) EC50
[6] = Human coronavirus 229E, MRC5, 72 h, read-out: 229E MRC5 CPE assay (μM) EC90

Structure (SMILES) | EC50 (OC43; [1]) | EC90 (OC43; [1]) | EC50 (229E; [2]) | EC90 (229E; [3]) | EC50 (OC43; [4]) | EC90 (OC43; [4]) | EC50 (229E; [5]) | EC90 (229E; [6])
CCC(CC)COC(=O)[C@H](C)NP(=O)(OC[C@H]1O[C@@](C#N)(c2ccc3c(N)ncnn23)[C@H](O)[C@@H]1O)Oc1ccc(Nc2ccnc3cc(Cl)ccc23)cc1CN(CC)CC (some centres unmarked) [Compound 016] | > 0.5 µM | > 0.5 µM | > 0.5 µM | > 0.5 µM | – | – | – | –
CCC(CC)COC(=O)[C@H](C)NP(=O)(OC[C@H]1O[C@@](C#N)(c2ccc3c(N)ncnn23)[C@H](O)[C@@H]1O)ONC(=N)c1ccccc1 (some centres unmarked) [Compound 028] | – | – | – | – | > 0.5 µM | > 0.5 µM | > 0.5 µM | > 0.5 µM
CCCC(CCC)C(=O)OCOP(=O)(NC(C)(C)C(=O)OC(C)C)OC[C@H]1O[C@@](C#N)(c2ccc3c(N)ncnn23)[C@H](O)[C@@H]1O (some centres unmarked) [Compound 034] | – | – | – | – | 0.1 to 0.5 µM | > 0.5 µM | 0.1 to 0.5 µM | > 0.5 µM
CCCC(CCC)C(=O)OCO[P@](=O)(N[C@H](C)C(=O)OC(C)C)OC[C@H]1O[C@@](C#N)(c2ccc3c(N)ncnn23)[C@H](O)[C@@H]1O [Compound 036] | – | – | – | – | 0.1 to 0.5 µM | > 0.5 µM | 0.1 to 0.5 µM | 0.1 to 0.5 µM
CCCC(CCC)C(=O)O[C@@H]1[C@@H]2OP(=O)(O)OC[C@H]2O[C@@]1(C#N)c1ccc2c(N)ncnn12 [Compound 057] | – | – | – | – | 0.1 to 0.5 µM | > 0.5 µM | > 0.5 µM | > 0.5 µM
CCC(CC)COC(=O)[C@H](C)N[P@](=O)(OC[C@H]1O[C@@](C#N)(c2ccc3c(N)ncnn23)[C@H](O)[C@@H]1O)Oc1ccc(Nc2ccnc3cc(Cl)ccc23)cc1CN(CC)CC [Compound 062] | > 0.5 µM | > 0.5 µM | > 0.5 µM | > 0.5 µM | – | – | – | –
CCC(CC)COC(=O)[C@H](C)N[P@@](=O)(OC[C@H]1O[C@@](C#N)(c2ccc3c(N)ncnn23)[C@H](O)[C@@H]1O)Oc1ccc(Nc2ccnc3cc(Cl)ccc23)cc1CN(CC)CC [Compound 063] | > 0.5 µM | > 0.5 µM | > 0.5 µM | > 0.5 µM | – | – | – | –
CCC(CC)COC(=O)[C@H](C)N[P@@](=O)(OCCN(CC)CCCC(C)Nc1ccnc2cc(Cl)ccc12)OC[C@H]1O[C@@](C#N)(c2ccc3c(N)ncnn23)[C@H](O)[C@@H]1O (some centres unmarked) [Compound 068] | – | – | – | – | > 0.5 µM | > 0.5 µM | > 0.5 µM | > 0.5 µM
CCC(CC)COC(=O)[C@H](C)N[P@](=O)(OCCN(CC)CCCC(C)Nc1ccnc2cc(Cl)ccc12)OC[C@H]1O[C@@](C#N)(c2ccc3c(N)ncnn23)[C@H](O)[C@@H]1O (some centres unmarked) [Compound 069] | – | – | – | – | > 0.5 µM | > 0.5 µM | > 0.5 µM | > 0.5 µM
CCCC(CCC)C(=O)OCO[P@](=O)(N[C@@H](C)C(=O)OCC(CC)CC)OC[C@H]1O[C@@](C#N)(c2ccc3c(N)ncnn23)[C@H](O)[C@@H]1O [Compound 070] | – | – | – | – | 0.1 to 0.5 µM | > 0.5 µM | 0.1 to 0.5 µM | 0.1 to 0.5 µM
CCCC(CCC)C(=O)OCO[P@@](=O)(N[C@@H](C)C(=O)OCC(CC)CC)OC[C@H]1O[C@@](C#N)(c2ccc3c(N)ncnn23)[C@H](O)[C@@H]1O [Compound 071] | – | – | – | – | < 0.1 µM | < 0.1 µM | < 0.1 µM | < 0.1 µM
CCCC(CCC)C(=O)OCO[P@](=O)(N[C@@H](C)C(=O)OC(C)C)OC[C@H]1O[C@@](C#N)(c2ccc3c(N)ncnn23)[C@H](O)[C@@H]1O [Compound 074] | – | – | – | – | < 0.1 µM | 0.1 to 0.5 µM | < 0.1 µM | < 0.1 µM
CCCC(CCC)C(=O)OCO[P@@](=O)(N[C@@H](C)C(=O)OC(C)C)OC[C@H]1O[C@@](C#N)(c2ccc3c(N)ncnn23)[C@H](O)[C@@H]1O [Compound 075] | – | – | – | – | 0.1 to 0.5 µM | > 0.5 µM | 0.1 to 0.5 µM | 0.1 to 0.5 µM
CCC(CC)COC(=O)[C@H](C)N[P@@](=O)(OCOC(=O)OC(C)C)OC[C@H]1O[C@@](C#N)(c2ccc3c(N)ncnn23)[C@H](O)[C@@H]1O [Compound 076] | – | – | – | – | 0.1 to 0.5 µM | 0.1 to 0.5 µM | < 0.1 µM | 0.1 to 0.5 µM
CCN(CC)Cc1cc(Nc2ccnc3cc(Cl)ccc23)ccc1O[P@](=O)(N[C@@H](C)C(=O)OC(C)C)OC[C@H]1O[C@@](C#N)(c2ccc3c(N)ncnn23)[C@H](O)[C@@H]1O [Compound 086] | > 0.5 µM | > 0.5 µM | > 0.5 µM | > 0.5 µM | – | – | – | –
CCN(CC)Cc1cc(Nc2ccnc3cc(Cl)ccc23)ccc1O[P@](=O)(N[C@@H](C)C(=O)OC)OC[C@H]1O[C@@](C#N)(c2ccc3c(N)ncnn23)[C@H](O)[C@@H]1O [Compound 087] | > 0.5 µM | > 0.5 µM | > 0.5 µM | > 0.5 µM | – | – | – | –
CCOC(=O)[C@H](C)N[P@](=O)(OC[C@H]1O[C@@](C#N)(c2ccc3c(N)ncnn23)[C@H](O)[C@@H]1O)Oc1ccc(Nc2ccnc3cc(Cl)ccc23)cc1CN(CC)CC [Compound 088] | > 0.5 µM | > 0.5 µM | > 0.5 µM | > 0.5 µM | – | – | – | –
N#C[C@@]1(c2ccc3c(N)ncnn23)O[C@@H]2COP(=O)(O)O[C@H]2[C@H]1O [Compound 094] | – | – | – | – | > 0.5 µM | > 0.5 µM | > 0.5 µM | > 0.5 µM
CCCC(CCC)C(=O)OCO[P@](=O)(N[C@@H](C)C(=O)OC)OC[C@H]1O[C@@](C#N)(c2ccc3c(N)ncnn23)[C@H](O)[C@@H]1O [Compound 095] | – | – | – | – | < 0.1 µM | 0.1 to 0.5 µM | < 0.1 µM | 0.1 to 0.5 µM
CCCC(CCC)C(=O)OCO[P@@](=O)(N[C@@H](C)C(=O)OC)OC[C@H]1O[C@@](C#N)(c2ccc3c(N)ncnn23)[C@H](O)[C@@H]1O [Compound 096] | – | – | – | – | 0.1 to 0.5 µM | 0.1 to 0.5 µM | < 0.1 µM | < 0.1 µM
CCCC(CCC)C(=O)OCO[P@](=O)(N[C@@H](C)C(=O)OCC)OC[C@H]1O[C@@](C#N)(c2ccc3c(N)ncnn23)[C@H](O)[C@@H]1O [Compound 097] | – | – | – | – | 0.1 to 0.5 µM | 0.1 to 0.5 µM | < 0.1 µM | 0.1 to 0.5 µM
CCCC(CCC)C(=O)OCO[P@@](=O)(N[C@@H](C)C(=O)OCC)OC[C@H]1O[C@@](C#N)(c2ccc3c(N)ncnn23)[C@H](O)[C@@H]1O [Compound 098] | – | – | – | – | < 0.1 µM | 0.1 to 0.5 µM | < 0.1 µM | < 0.1 µM
CCC(CC)COC(=O)[C@H](C)NP(=O)(OCC(=O)OC(C)C)OC[C@H]1O[C@@](C#N)(c2ccc3c(N)ncnn23)[C@H](O)[C@@H]1O (some centres unmarked) [Compound 103] | – | – | – | – | > 0.5 µM | > 0.5 µM | > 0.5 µM | > 0.5 µM
CCC(CC)COC(=O)[C@H](C)NP(=O)(OCOC(=O)C(C)C)OC[C@H]1O[C@@](C#N)(c2ccc3c(N)ncnn23)[C@H](O)[C@@H]1O (some centres unmarked) [Compound 104] | – | – | – | – | > 0.5 µM | > 0.5 µM | > 0.5 µM | > 0.5 µM
CCC(CC)COC(=O)[C@H](C)NP(=O)(OC[C@H]1O[C@@](C#N)(c2ccc3c(N)ncnn23)[C@H](O)[C@@H]1O)Oc1ccc(N)cc1C(=O)O (some centres unmarked) [Compound 107] | > 0.5 µM | > 0.5 µM | > 0.5 µM | > 0.5 µM | – | – | – | –
N#C[C@@]1(c2ccc3c(N)ncnn23)O[C@H](COP(=O)(OCOC(=O)C2CCCC2)OCOC(=O)C2CCCC2)[C@@H](O)[C@H]1O [Compound 265] | – | – | – | – | – | – | > 0.5 µM | > 0.5 µM
N#C[C@@]1(c2ccc3c(N)ncnn23)O[C@H](COP(=O)(OCOC(=O)OC2CCCC2)OCOC(=O)OC2CCCC2)[C@@H](O)[C@H]1O [Compound 277] | – | – | – | – | – | – | < 0.1 µM | 0.1 to 0.5 µM
